{"source": "patent US12365651B2", "about": "“Use of pirfenidone and derivatives for modulation of B lymphocyte activity and organ protection from acute tissue damage” (Washington University, priority 2017, dated 2025)", "test_system": "PDICs obtained from thioglycolate-stimulated TIRAP−/− mice", "test": "CD86 on CD19+ cells in cultured PDICs from TIRAP−/− mice", "type": "cell-based, mouse", "details": "LPS stimulated cultures", "text": "Noting that prior studies have shown that B cells are activated by engagement of TLR by damage-associated molecular patterns (DAMPs) released by necrotic cells (17), and noting that TLR signaling was present in CD19+CD11b− lymphocytes sorted from DT injured animals but absent in the same cells sorted from DT injured animals treated with Pirfenidone, we focused our in vitro studies on CD19+ cells using lipolysaccharide (a classic TLR4 agonist and a T-independent antigen), as well as necrotic cardiac cell extracts, which we and others have shown signal through TLR4 (18). […] To further explore the role of TLR mediated signaling, we repeated these experiments in PDICs obtained from thioglycolate-stimulated TIRAP−/− mice. […] Importantly, both mechanisms were sensitive to treatment with Pirfenidone (FIG. 10E and FIG. 10F).\nPeritoneal derived inflammatory cells (PDICs) were harvested from the peritoneal cavity of thioglycolate-stimulated wild-type and TIRAP−/− deficient mice. PDIC cultures contain an admixture of inflammatory cells, including CD19+ B cells (40). TIRAP deficient mice were a gift from Dr. Ruslan Medzhitov (Yale University, New Haven, CT). PDICs were harvested on day 4 after i.p. injection of 1 ml of thioglycolate medium (Millipore, Billerica, MA, USA). […]"}
{"smiles": "Cc1ccc(=O)n(-c2ccccc2)c1", "note": "[Pirfenidone, 5 methyl-1-phenyl-2-[H] pyridone]", "values": [{"measurement": "CD19+ CD86high lymphocytes", "value": "small but significant (p<0.001) decrease"}]}
